Assay results taken from patent publication US20210122730A1, “GLUCOCORTICOID RECEPTOR MODULATORS” (ORIC Pharmaceuticals, Inc., priority 2017, published 2021).

Assays:
[1] = target: T1, CYP2C8 (Homo sapiens, UniProt P10632); test: CYP Inhibition Assay (CYP2C8, human liver microsomes, paclitaxel substrate); type: in vitro ADME; settings: pH 7.4; pooled human liver microsomes 0.1 mg/mL, probe substrate paclitaxel
T1 construct: Pooled human microsomes were obtained from Sekisui XenoTech, KS; tissue Sekisui XenoTech, KS; host or cells: pooled human liver microsomes
T1 sequence (P10632 1-490): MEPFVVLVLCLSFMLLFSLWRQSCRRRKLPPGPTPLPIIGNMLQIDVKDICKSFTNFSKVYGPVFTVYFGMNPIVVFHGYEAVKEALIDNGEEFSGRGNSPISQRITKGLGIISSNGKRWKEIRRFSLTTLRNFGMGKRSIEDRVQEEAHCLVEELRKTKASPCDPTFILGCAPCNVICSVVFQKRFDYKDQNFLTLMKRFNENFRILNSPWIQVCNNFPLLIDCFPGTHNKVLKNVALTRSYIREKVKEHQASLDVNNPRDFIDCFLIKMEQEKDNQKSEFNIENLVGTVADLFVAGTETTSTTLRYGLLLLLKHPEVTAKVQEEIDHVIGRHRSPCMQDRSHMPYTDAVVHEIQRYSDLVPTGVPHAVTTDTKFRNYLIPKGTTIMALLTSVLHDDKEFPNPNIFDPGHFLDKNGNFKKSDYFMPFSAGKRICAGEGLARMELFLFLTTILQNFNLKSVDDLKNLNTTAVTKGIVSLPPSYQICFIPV
Procedure, shortened: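 CYP2C8 activity read as 6α-hydroxypaclitaxel formation by LC-MS/MS, with % inhibition versus vehicle control. Reactions ran 5 min at 37° C, pH 7.4 phosphate buffer, 0.1 mg/mL pooled human liver microsomes, 1 mM NADPH, duplicate wells.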

[2] = target: T2, GR (Homo sapiens, UniProt P04150); test: In Vitro GR Luciferase Reporter Assay (antagonist mode, CHO-K1-GR-MMTV-Luc reporter cells); type: cell-based; settings: antagonist mode, 10 nM Dexamethasone
T2 construct: expressed in transfected cells; host or cells: CHO-K1
T2 sequence (P04150 1-777): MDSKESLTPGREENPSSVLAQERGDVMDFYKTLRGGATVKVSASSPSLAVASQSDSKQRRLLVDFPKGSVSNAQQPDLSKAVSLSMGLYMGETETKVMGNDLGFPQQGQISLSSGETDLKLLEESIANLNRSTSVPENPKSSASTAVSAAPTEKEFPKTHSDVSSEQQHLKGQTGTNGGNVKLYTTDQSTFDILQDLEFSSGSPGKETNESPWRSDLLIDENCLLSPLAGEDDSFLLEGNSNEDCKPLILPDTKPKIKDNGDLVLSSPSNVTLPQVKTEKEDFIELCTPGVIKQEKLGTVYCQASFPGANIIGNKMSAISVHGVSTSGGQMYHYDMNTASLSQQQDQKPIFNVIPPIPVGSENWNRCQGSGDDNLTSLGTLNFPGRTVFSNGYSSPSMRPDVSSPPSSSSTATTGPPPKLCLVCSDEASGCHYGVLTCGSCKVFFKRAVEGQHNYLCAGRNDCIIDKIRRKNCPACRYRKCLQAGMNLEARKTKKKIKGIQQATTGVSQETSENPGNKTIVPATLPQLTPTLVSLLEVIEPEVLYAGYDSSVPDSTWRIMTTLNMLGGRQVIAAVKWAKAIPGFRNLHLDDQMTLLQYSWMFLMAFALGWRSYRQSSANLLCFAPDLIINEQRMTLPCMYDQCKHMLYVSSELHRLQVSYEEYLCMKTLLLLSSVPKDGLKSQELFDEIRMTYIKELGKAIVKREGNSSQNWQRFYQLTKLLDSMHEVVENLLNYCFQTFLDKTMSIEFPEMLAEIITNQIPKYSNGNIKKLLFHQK
Procedure, shortened: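 Antagonist mode: compounds (8 serial 1:5 dilutions) added to GR-MMTV-luciferase CHO-K1 reporter cells co-exposed to 10 nM dexamethasone final, in phenol red-free DMEM plus 10% CSS. After roughly 18-24 h at 37° C, OneGlo luminescence read and IC50 calculated.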

| inhibition at 5 min [1] | IC50 [2] | SMILES |
| --- | --- | --- |
| 25 to 50% | ≤ 0.1 µM | O=C(c1cc(F)ccn1)[C@]12Cc3cnn(-c4ccc(F)cc4)c3C=C1CC[C@H](N(C1CC1)S(=O)(=O)c1ccc(Cl)nc1)C2 [Example 320, 6-chloro-N-cyclopropyl-N-((4aS,6S)-1-(4-fluorophenyl)-4a-(4-fluoropicolinoyl)-4,4a,5,6,7,8-hexahydro-1H-benzo[f]indazol-6-yl)pyridine-3-sulfonamide] |
| ≤ 25% | ≤ 0.1 µM | O=C(c1cc(Cl)ccn1)[C@]12Cc3cnn(-c4ccc(F)cc4)c3C=C1CC[C@H](N(C1CC1)S(=O)(=O)c1ccc(Cl)nc1)C2 [Example 321, 6-chloro-N-((4aS,6S)-4a-(4-chloropicolinoyl)-1-(4-fluorophenyl)-4,4a,5,6,7,8-hexahydro-1H-benzo[f]indazol-6-yl)-N-cyclopropylpyridine-3-sulfonamide] |
| 25 to 50% | ≤ 0.1 µM | CC(C)N([C@H]1CCC2=Cc3c(cnn3-c3ccc(F)cc3)C[C@]2(C(=O)c2cc(F)ccn2)C1)S(=O)(=O)c1ccc(Cl)nc1 [Example 322, 6-chloro-N-((4aS,6S)-1-(4-fluorophenyl)-4a-(4-fluoropicolinoyl)-4,4a,5,6,7,8-hexahydro-1H-benzo[f]indazol-6-yl)-N-isopropylpyridine-3-sulfonamide] |
| 25 to 50% | ≤ 0.1 µM | Cn1cnc(S(=O)(=O)N(C2CC(F)(F)C2)[C@H]2CCC3=Cc4c(cnn4-c4ccc(F)cc4)C[C@]3(C(=O)c3ncc(C(F)(F)F)s3)C2)n1 [Example 324, N-(3,3-difluorocyclobutyl)-N-((4aS,6S)-1-(4-fluorophenyl)-4a-(5-(trifluoromethyl)thiazole-2-carbonyl)-4,4a,5,6,7,8-hexahydro-1H-benzo[f]indazol-6-yl)-1-methyl-1H-1,2,4-triazole-3-sulfonamide] |
| ≤ 25% | ≤ 0.1 µM | Cn1cnc(S(=O)(=O)N(C2CC(F)(F)C2)[C@H]2CCC3=Cc4c(cnn4-c4ccc(F)cc4)C[C@]3(C(=O)c3cc(C(F)(F)F)ccn3)C2)c1 [Example 325, N-(3,3-difluorocyclobutyl)-N-((4aS,6S)-1-(4-fluorophenyl)-4a-(4-(trifluoromethyl)picolinoyl)-4,4a,5,6,7,8-hexahydro-1H-benzo[f]indazol-6-yl)-1-methyl-1H-imidazole-4-sulfonamide] |
| 50 to 75% | ≤ 0.1 µM | Cn1ccc(S(=O)(=O)N([C@H]2CCC3=Cc4c(cnn4-c4ccc(F)cc4)C[C@]3(C(=O)c3ncc(C(F)(F)F)s3)C2)[C@H]2C[C@](C)(O)C2)n1 [Example 326, N-((4aS,6S)-1-(4-fluorophenyl)-4a-(5-(trifluoromethyl)thiazole-2-carbonyl)-4,4a,5,6,7,8-hexahydro-1H-benzo[f]indazol-6-yl)-N-((1r,3S)-3-hydroxy-3-methylcyclobutyl)-1-methyl-1H-pyrazole-3-sulfonamide] |
| 25 to 50% | ≤ 0.1 µM | CC(C)N([C@H]1CCC2=Cc3c(cnn3-c3ccc(F)cc3)C[C@]2(C(=O)c2ncc(C(F)(F)F)s2)C1)S(=O)(=O)c1ncn(C)n1 [Example 327, N-((4aS,6S)-1-(4-fluorophenyl)-4a-(5-(trifluoromethyl)thiazole-2-carbonyl)-4,4a,5,6,7,8-hexahydro-1H-benzo[f]indazol-6-yl)-N-isopropyl-1-methyl-1H-1,2,4-triazole-3-sulfonamide] |
| 25 to 50% | ≤ 0.1 µM | CC(C)N([C@H]1CCC2=Cc3c(cnn3-c3ccc(F)cc3)C[C@]2(C(=O)c2cc(C(F)(F)F)ccn2)C1)S(=O)(=O)c1ncn(C)n1 [Example 328, N-((4aS,6S)-1-(4-fluorophenyl)-4a-(4-(trifluoromethyl)picolinoyl)-4,4a,5,6,7,8-hexahydro-1H-benzo[f]indazol-6-yl)-N-isopropyl-1-methyl-1H-1,2,4-triazole-3-sulfonamide] |
